Experimental data reported in patent publication EP2759295A1, “Foam cell specific Liver X Receptor (LXR) alpha agonist, SIRT1 inhibitors as well as p300 inhibitors as pharmaceutically active agents” (Max-Planck-Gesellschaft zur Förderung der Wissenschaften …, priority 2013, dated 2014).
Entries after “also recorded” stand apart in the source; their conditions may differ. Where two headings read alike, the source gives them in different places.

Columns and labels:
[1] = tested on: foam cells; assay: microarray genome-wide gene expression and GSEA in foam cells; format: cell-based, human; conditions: 10 µM
Experimental: Microarray analyses were performed according to instructions of Illumina's TotalPrep RNA Amplification Kit followed by hybridisation on HumanHT-12 v3 or HumanHT-12 v4 Expression BeadChips (illumina). Data analysis was performed with GenomeStudio […].1 (illumina). Differential expression analysis was performed on background-subtracted data with cubic spline normalization and Benjamini-Hochberg FDR correction. […] Gene expression data were submitted in MIAME-compliant form to the NCBI Gene Expression Omnibus database (GSE39079). Bead array data were validated by quantitative real-time PCR. The Gene Distance Matrix was conducted in Euclidean space using the MeV 4.3 software tool [[…]. et al. Biotechniques (2003), 34, 374-378]. Gene Set Enrichment Analysis (GSEA) was performed as described elsewhere [Subramanian A. et al. Proc. Natl. Acad. Sci. […] Enrichment of pathways was tested using the Reactome (v3.0) and the KEGG (v3.0) database from the Molecular Signature Database (MSigDB). Heatmaps were carried out with […]. et al. BMC Bioinformatics (2012), 11, 121]. For presentation of treatment effects in the heatmap, the pathway normalized enrichment score (NES) was adjusted with the appropriate FDR as follows: adjustedNES = (1-FDR) x NES.

[2] = tested on: THP-1 macrophages; assay: qPCR gene expression of LXRα target genes in THP-1 macrophages; format: cell-based, human
Experimental: (§1) For generating macrophages differentiation was induced by 10^-8 M Phorbol 12-myristate 13-acetate (PMA) (Sigma-Aldrich) for 48 h. Ligand treatment of macrophages was performed for further 24 h. To induce foam cell formation macrophages were treated for additional 48 h with 100 µg/mL modified human oxidized low density lipoprotein (oxLDL) obtained from Source BioScience (RP-048). Ligand treatment was performed simultaneously with foam cell formation. Cholesterol loading and treatment was controlled with Oil Red O staining (Alfa Aeser). To investigate ligand induced effects on cell proliferation of THP-1 macrophages CellTiter-Glo Luminescent Cell Viability Assay (Promega) was utilized.
(§2) Total RNA isolation and purification was performed by using the RNeasy Mini Kit (QIAGEN) and RNase-Free DNase Set (QIAGEN). cDNA was generated by reverse transcription using the High Capacity cDNA Reverse Transcription Kit (Applied Biosystems). Gene expression was quantified using the SYBR Green PCR Master Mix (Applied Biosystems) and ABI 7900HT Fast Real Time PCR System (Applied Biosystems). In each reaction 0.8 ng/µL cDNA and 0.2 µM primers were used. Gene expression was calculated with the ΔΔCt-method. β-Actin was used for normalisation.

[3] = target: T1, LXRβ ligand binding domain (LBD) (Homo sapiens, UniProt P55055); assay: dual luciferase reporter gene assay with LXRβ ligand binding domain in HEK-293 cells; format: cell-based
T1 construct: expressed in transfected cells; host or cells: HEK-293
T1 sequence (P55055 154-460 limits assumed): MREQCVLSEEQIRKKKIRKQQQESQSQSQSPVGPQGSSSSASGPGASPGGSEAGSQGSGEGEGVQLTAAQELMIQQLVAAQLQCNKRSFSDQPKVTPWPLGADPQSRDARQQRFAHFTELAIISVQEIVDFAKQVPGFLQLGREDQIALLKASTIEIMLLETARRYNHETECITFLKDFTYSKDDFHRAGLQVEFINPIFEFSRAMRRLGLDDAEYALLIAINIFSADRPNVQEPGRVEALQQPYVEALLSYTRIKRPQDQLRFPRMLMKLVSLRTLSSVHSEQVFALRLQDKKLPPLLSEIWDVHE
Experimental: Selection and amplification were performed in E-coli cells. Purification of the plasmids was performed with a plasmid purification kit (Qiagen). For transfection HEK-293 cells were plated in 96-well plates (TPP) at a density of 3.5 x 10^4 cells/well for 24 h. To investigate the ligand binding on LXRα ligand binding domain, 0.04 ng of renilla luciferase coding plasmide pGL4.75 (Promega), 0.04 ng of LXRα-LBD/GAL4-DBD plasmide and 80 ng of firefly luciferase coding plasmide pGL4.31 (Promega) were used in a total volume of 200 µL for each well. In LXRβ binding assay 40 ng of LXRβ-LBD/GAL4-DBD plasmide were applied in each transfection mix. Transfection was carried out for 4 h with Lipofectamine 2000 Transfection Reagent (Invitrogen) in Opti-MEM medium (Invitrogen). Ligand treatment was performed at different concentrations for 24 h. For lysis and detection dual-luciferase reporter gene assay system (Promega) and POLARstar Omega (BMG LABTECH) were used.

[4] = tested on: foam cells; assay: qPCR gene expression of LXRα target genes in foam cells; format: cell-based, human; conditions: 10 µM
Experimental: as §1, §2

[5] = tested on: foam cells; assay: triglyceride content in foam cells (Triglyceride Assay Kit); format: cell-based, human; conditions: 10 µM, 48 h
Experimental: (§3) THP-1 monocytes were plated out into 24-well plates (Nunc) at a density of 2 x 10^5 cells/well. After differentiation and treatment cells were lysed with 100 µL lysis buffer (PBS, 0.25 M NaCl, 1% Triton X-100). Total and free cholesterol were determined using the colorimetric enzymatic Amplex Red Cholesterol Assay Kit (Invitrogen). Triglycerides were quantified by Triglyceride Assay Kit (BioVision). For normalisation protein content was determined with Pierce 660 nm Protein Assay Reagent (Thermo Scientific).

[6] = tested on: THP-1 macrophages; assay: CellTiter-Glo viability assay in THP-1 macrophages; format: cell-based, human
Experimental: as §1

[7] = tested on: foam cells; assay: Western blot of LXRα and APOE content in foam cells; format: cell-based, human; conditions: densitometry
Experimental: Whole cell extracts were harvested from three biological replicates and denaturized for SDS-PAGE (NuPAGE Novex 4-12% Bis-Tris Gels). Proteins were blotted on nitrocellulose Hybond ECL membrane and incubated with strictly validated published antibodies against LXRα (Abcam, ab 41902), APOE (Abcam ab1906), and as housekeeping protein control β-Actin (Santa Cruz Biotechnology, sc-47778, C4). Secondary antibodies were HRP labeled anti-mouse and anti-rabbit (Santa Cruz Biotechnology). After detection with Western Lightning Plus-ECL solution membranes were stripped with Restore Plus Western Blot Stripping Buffer. Densitometry was performed in ImageQuant TL (GE Healthcare). This tool measures quantitatively the optical density and provides more accurate data than simple eye-observations. The calculation of log (protein of interest/ β-Actin) corrects data for loading imbalances.

[8] = tested on: foam cells; assay: cholesterol content in foam cells (Amplex Red Cholesterol Assay); format: cell-based, human; conditions: 10 µM, 48 h
Experimental: as §3

In the case of `C(=C\c1ccc(OCC2CO2)cc1)/c1ccccc1` (centres unmarked) [compound 1, 2-[[4-[(E)-styryl]phenoxy]-methyl]oxirane], the “Lipid metabolism processes (gene set enrichment)” value [1] is reported as “comparably up-regulated”, the “triacylglyceride biosynthesis (transcriptional regulation)” value [1] is reported as “not regulated” and the “expression of LXRα target genes (LXRα, SREBF1, ABCA1, APOE)” value ([2]; 10 µM) is reported as “only marginally activated LXR-target genes in macrophages”. The ABCA1 expression ([2]; in the presence of 1 µM T09) was “additive effects”, the “Transcriptional activation of LXRβ” value [3] was “does not activate the LXRβ subtype” and the “expression of LXRα target genes (LXRα, SREBF1, ABCA1, APOE)” value [4] was “strongly in foam cells; also recorded: potent target gene expression similar to T09; also recorded: up-regulation of SREBF1 mRNA”. For the same compound, the triglyceride levels [5] was “triglyceride levels were not increased”, the “no cytotoxic effects / no reduction of cellular viability up to” value [6] was “up to 50 µM” and the “no cytotoxic effects / no reduction of cellular viability up to” value ([6]; listed as Compound 1) was “up to 25 µM”. The “protein expression levels of LXRα target genes” value [7] was “increased protein expression levels of LXRα target genes” and the “total and esterified cholesterol content” value [8] was “significant reduction of total and esterified cholesterol content”.
